# Reference: patent US5972976A, “Aminostilbazole derivative and medicine” (priority 1994, dated 1999)
# Where two headings read alike, the source gives them in different places.
# Key:
# [1] = test system: KB (human nasopharynx carcinoma); assay: In vitro anticancer effect (MTT), KB cell line; assay type: cell-based; details: KB cells, 72 hours, read-out: IC50 (50% cell growth-inhibitory concentration)
# Procedure: (§1) In Vitro anticancer effects on KB (human nasopharynx carcinoma), Colon 38 (mouse colon cancer), and WiDr (human colorectal cancer) cell lines
# (§2) Each of KB, Colon 38, and WiDr cell lines were respectively cultured using 10% fetal calf serum-supplemented D-MEM medium (Nissui Pharmaceutical). Each monolayer of cells was exfoliated with a 50:50 (v/v) mixture of 0.25% trypsin and 0.02% ethylenediaminetetracetic acid and after inactivation of trypsin, the cells were collected by centrifuging at 800 rpm for 3 minutes and suspended in the same medium as above. Using a hemocytometer, the number of the cells in the suspension were counted. The suspension was diluted with the medium to 5×10^4 cells/ml and distributed to a 96-well flat-bottomed plate, 100 μl per well.
# (§3) The test drug was first dissolved in dimethyl sulfoxide at a concentration of 2 mg/ml and diluted with the above medium to 20 μg/ml. Using this solution for the highest concentration, a doubling dilution series was prepared and 100 μl of each dilution was added to the above cell suspension.
# (§4) The plate was then incubated under 5% CO2 -air at 37° C. for 72 hours. Then, a 5 mg/ml solution of MTT [3-(4,5-dimethylthiazol-2-yl)-2,5-diphenyltetrazolium bromide] was added to the plate, 30 μl per well and the reaction was carried out under 5% CO2 -air at 37° C. for 4 hours. After the reaction, the solution in each well was aspirated off and 100 μl/well of dimethyl sulfoxide was added. After 5 minutes of shaking, the absorbance at 540 nm was measured with a Multiscan (Titertek) and the 50% cell growth-inhibitory concentration (IC50) was calculated.
# [2] = test system: Colon 38 (mouse colon cancer); assay: In vitro anticancer effect (MTT), Colon 38 cell line; assay type: cell-based; details: Colon 38 cells, 72 hours, read-out: IC50 (50% cell growth-inhibitory concentration)
# Procedure: as §1, §2, §3, §4
# [3] = test system: WiDr tumor cells transplanted in nude mice; assay: Growth inhibitory activity against WiDr tumor cells transplanted in nude mice; assay type: in vivo; details: oral; for Growth inhibition rate at day 16 after initiation of administration: once daily
# Source text: Growth inhibitory activity against WiDr tumor cells transplanted in nude mice The tumor subcutaneously subcultured in nude mice (BALB/c nu/nu, male) aged 5-7 weeks were excised. After removal of the skin and connective tissue around the tumor, the tumor mass was split to remove the central necrotic tissue and, then, cut into cubes with a 2 mm side. One cube was loaded into a grafting needle and transplanted subcutaneously in the right thoracic region of the nude mouse. The major and minor diameters of the tumor were measured with calipers and the tumor volume was calculated by means of Equation 1. Starting when the volume had reached about 100 mm^3, the mice were divided into 6 individuals per group and the test drug suspended in 0.5% methylcellulose solution was administered orally by gastric gavage once daily.
# Volume=1/2×major diameter×(minor diameter)^2Equation 1
# The tumor volume was determined by the above method at predetermined intervals. From the tumor volume thus calculated, the growth rate was calculated by means of Equation 2. Then, using Equation 3, the growth inhibition rate in each drug treatment group relative to the control group was calculated.
# Growth rate=tumor volume at day n/tumor volume at initiation of administration Equation 2
# Growth inhibition rate (%)=(1-growth rate in drug treatment group/growth rate in control group)×100 Equation 3
# As the test compound, the compound of Example 3A was used.
# [4] = test system: Colon-26 (mouse colon cancer) cells transplanted in mice; assay type: in vivo, mouse (BALB/c, male); details: oral, once daily for 8 days
# Procedure: Anticancer activity against Colon-26 (mouse colon cancer) cells transplanted in mice
# Using an injection syringe, Colon-26 cells cultured in vitro were transplanted subcutaneously in a dose of 5×10^5 /animal in the right thoracic region of BALB/c mice (5 weeks old, male). As in Test Example 3, the mice were divided into groups of 6 when the tumor volume had reached about 150 mm^3. Starting the following day, the test drug suspended in 0.5% methylcellulose solution was administered orally by gastric gavage once daily for 8 days. The tumor volume was measured at a predetermined interval by the same method as in Test Example 3 and the tumor growth inhibition rate in each drug treatment group relative to the control group was calculated. As the test compound, the compound of Example 3A was used.
# [5] = test system: WiDr (human colorectal cancer); assay: In vitro anticancer effect (MTT), WiDr cell line; assay type: cell-based; details: WiDr cells, 72 hours, read-out: IC50 (50% cell growth-inhibitory concentration)
# Procedure: as §1, §2, §3, §4
# microtubule protein = assay: Microtubule polymerization-inhibitory activity; assay type: biochemical; details: porcine brain microtubule protein, 37° C., pH 6.8, 350 nm; read-out: 50% inhibitory concentration against microtubule protein polymerization
# Procedure: Microtubule polymerization-inhibitory activity Microtubule polymerization-inhibitory activity
# A microtubule protein (a mixed solution of microtubule protein and microtubule-bound protein) was purified from a crude porcine brain extract according to the method of Williams et al. [Method in Enzymology, 85, 36, 1982] to isolate and the microtubule polymerization inhibitory activity of the compound of the invention was studied. The microtubule protein solution was diluted to 4 mg/ml as purified microtubule protein with GTP (guanosine-5'-triphosphate)-added reaction buffer (pH 6.8) {100 mM MES [2-(N-morpholinoethanesulfonic acid], 0.5 mM MgCl2 -1 mM EGTA (ethylene glycol bis(β-aminoethyl ether)-N,N,N',N'-tetracetic acid), 1 mM GTP} under ice-cooling and after degassing in ice, the test drug was added. Using a spectrophotometer maintained at 37° C., the absorbance of the system at 350 nm was measured at 2-minute intervals for 30 minutes to construct a polymerization curve and the concentration corresponding to 50% inhibition of microtubule protein polymerization was calculated. As the test drug, the compound of Example 3A was used.
# [6] = test system: mouse monocytic leukemia P-388 cell line; assay: In vivo anticancer activity against mouse monocytic leukemia P-388 cell line; design: species or system mouse (CDF1); details: oral, twice (following day and after 5 days)
# Procedure: In vivo anticancer activity against mouse monocytic leukemia P-388 cell line
# A suspension of tumor cells was transplanted intraperitoneally in CDF1 mice in a dose of 10^6 cells/animal. On the following dav and after 5 days, or twice, the test drug suspended in 0.5% methylcellulose solution was administered orally. The experiment was performed in 8-12 mice for each control group and 6 mice for each drug treatment group.
# For evaluation, the median survival time in days was determined for each drug treatment group (T) and control group (C) and T/C (%) was calculated.
# tubulin = details: J. Med. Chem. 1991, 34, 2579; cited from earlier work
# [7] = Acute toxicity, single oral administration; details: mouse, in vivo, mortality after 2 weeks, probit method
# Procedure: Male 5-week-old CDF1 mice were used. After the compound of Example 3B or 34 was orally administered once, the mortality rate was investigated after 2 weeks and the LD50 value was calculated by the probit method. […] The high safety of the compound of the invention is obvious.
IC50 [1] [µg/mL],IC50 [2] [µg/mL],IC50 [5] [µg/mL],Structure (SMILES),"T/C (median survival time, treated/control) ([6]; 100 mg/kg) [%]","T/C (median survival time, treated/control) ([6]; 200 mg/kg) [%]","T/C (median survival time, treated/control) ([6]; 25 mg/kg) [%]","T/C (median survival time, treated/control) ([6]; 50 mg/kg) [%]",also measured
0.1,0.15,0.09,"COc1ccc(S(=O)(=O)Nc2ccccc2/C=C/c2cccnc2)cc1 [Example 2 (trans), 3-[2-[2-[[(p-Methoxyphenyl)sulfonyl]amino]phenyl]ethenyl]pyridine]",,,,,
,,,"COc1ccc(S(=O)(=O)N(CCO)c2ccccc2/C=C/c2cc[n+]([O-])cc2)cc1 [Example 49, (E)-4-[2-[2-[N-(2-Hydroxyethyl)-N-[(p-methoxyphenyl)sulfonyl]amino]phenyl]ethenyl]pyridine 1-oxide]",185,220,,,
4.86,6.48,4.81,"COc1ccc(S(=O)(=O)Nc2ccccc2/C=C\c2cccnc2)cc1 [Example 2 (cis), 3-[2-[2-[[(p-Methoxyphenyl)sulfonyl]amino]phenyl]ethenyl]pyridine]",,,,,
,,,"COc1ccc(/C=C\c2cc(OC)c(OC)c(OC)c2)cc1 [(Z)-3,4,5-trimethoxy-4'-methoxystilbene]",,,,,tubulin polymerization-inhibitory activity (tubulin): have tubulin polymerization-inhibitory activity
,,,"COc1ccc(S(=O)(=O)N(C(C)=O)c2ccccc2/C=C/c2cc[n+]([O-])cc2)cc1 [Example 57, (E)-4-[2-[2-[N-Acetyl-N-[(p-methoxyphenyl)sulfonyl]amino]phenyl]ethenyl]pyridine 1-oxide]",215,250,115,160,
,,,"COc1ccc(S(=O)(=O)Nc2ccccc2/C=C/c2cc[n+]([O-])cc2)cc1 [Example 20, (E)-4-[2-[2-[[(p-Methoxyphenyl)sulfonyl]amino]phenyl]ethenyl]pyridine 1-oxide]",180,195,135,115,
,,,"COc1ccc(S(=O)(=O)Nc2ccccc2/C=C/c2ccncc2)cc1.Cl [Example 3B, (E)-4-[2-[2-[[(p-Methoxyphenyl)sulfonyl]amino]phenyl]ethenyl]pyridine Hydrochloride]",168,221,116,126,LD50 at 336 h [7]: 510 mg/kg
0.44,0.75,0.45,"COc1ccc(S(=O)(=O)Nc2ncccc2/C=C/c2ccccc2)cc1 [Example 1, (E)-2-[[(p-Methoxyphenyl)sulfonyl]amino]-3-(2-phenyl-ethenyl)pyridine]",,,,,
0.12,0.16,0.16,"COc1ccc(S(=O)(=O)Nc2ccccc2/C=C/c2ccccn2)cc1 [Example 4, (E)-2-[2-[2-[[(p-Methoxyphenyl)sulfonyl]amino]phenyl]ethenyl]pyridine]",,,,,
,,,"COc1ccc(S(=O)(=O)N(CCO)c2ccccc2/C=C/c2ccncc2)cc1 [Example 34, (E)-4-[2-[2-[N-(2-Hydroxyethyl)-N-[(p-methoxyphenyl)sulfonyl]amino]phenyl]ethenyl]pyridine]",167,210,105,124,LD50 at 336 h [7]: 754 mg/kg

Structure (SMILES),IC50 [1] [µg/mL],IC50 [2] [µg/mL],IC50 [5] [µg/mL],"T/C (median survival time, treated/control) ([6]; 100 mg/kg) [%]","T/C (median survival time, treated/control) ([6]; 200 mg/kg) [%]","T/C (median survival time, treated/control) ([6]; 25 mg/kg) [%]","T/C (median survival time, treated/control) ([6]; 50 mg/kg) [%]",also measured
"COc1ccc(S(=O)(=O)Nc2ccccc2/C=C/c2ccncc2)cc1 [Example 3A, (E)-4-[2-[2-[[(p-Methoxyphenyl)sulfonyl]amino]phenyl]ethenyl]pyridine]",0.0026,0.0031,0.0025,,,,,"Growth inhibition rate at day 16 after initiation of administration ([3]; 10 mg/kg/day): 16.4%; Growth inhibition rate at day 16 after initiation of administration ([3]; 30 mg/kg/day): 57.0%; death by the end of the administration period ([3]; 100 mg/kg, once daily for 14 days): no death occurred; Growth inhibition rate at day 16 after initiation of administration ([3]; 100 mg/kg/day): 81.7%; Growth inhibition rate at day 13 after initiation of administration ([4]; 25 mg/kg/day): 44.8%; Growth inhibition rate at day 13 after initiation of administration ([4]; 50 mg/kg/day): 95.3%; IC50 (microtubule protein): 11.2 µM"
